Data taken from PMC10008561 (Nature Communications, 2023).
Values joined by “and” are separate entries in the source; they are usually repeats but may differ in a detail not shown here. Equal values may be shown once.

What was measured:
Assay in all cases: cell-based
[1] = molecular target: T1, human KOR (GoA) (Homo sapiens, UniProt P41145, R170A)
T1 construct: expressed in transfected cells; host or cells: HEK293T

[2] = molecular target: T2, human KOR (GoA) (Homo sapiens, UniProt P41145, N141A)
T2 construct: expressed in transfected cells; host or cells: HEK293T

[3] = molecular target: T3, human KOR (GoA) (Homo sapiens, UniProt P41145, Y139L)
T3 construct: expressed in transfected cells; host or cells: HEK293T

[4] = molecular target: T4, human KOR (GoA) (Homo sapiens, UniProt P41145, R257A)
T4 construct: expressed in transfected cells; host or cells: HEK293T

[5] = molecular target: T5, human KOR (GoA) (Homo sapiens, UniProt P41145, D105A)
T5 construct: expressed in transfected cells; host or cells: HEK293T

[6] = molecular target: T6, human KOR (GoA) (Homo sapiens, UniProt P41145, N326A)
T6 construct: expressed in transfected cells; host or cells: HEK293T

[7] = molecular target: T7, human KOR (GoA) (Homo sapiens, UniProt P41145, K227A)
T7 construct: expressed in transfected cells; host or cells: HEK293T

[8] = molecular target: T8, human KOR (GoA) (Homo sapiens, UniProt P41145, D155A)
T8 construct: expressed in transfected cells; host or cells: HEK293T

[9] = molecular target: T9, human KOR (GoA) (Homo sapiens, UniProt P41145, F283A)
T9 construct: expressed in transfected cells; host or cells: HEK293T

[10] = molecular target: T10, human KOR (GoA) (Homo sapiens, UniProt P41145, F114L)
T10 construct: expressed in transfected cells; host or cells: HEK293T

[11] = molecular target: T11, human KOR (GoA) (Homo sapiens, UniProt P41145, Q115N)
T11 construct: expressed in transfected cells; host or cells: HEK293T

[12] = molecular target: T12, human KOR (Gz) (Homo sapiens, UniProt P41145, L253A); conditions: HEK-293T
T12 construct: expressed in transfected cells; host or cells: HEK293T

[13] = molecular target: T13, human KOR (Gz) (Homo sapiens, UniProt P41145, Y320L)
T13 construct: expressed in transfected cells; host or cells: HEK293T

[14] = molecular target: T14, human KOR (Gz) (Homo sapiens, UniProt P41145, R274A)
T14 construct: expressed in transfected cells; host or cells: HEK293T

[15] = molecular target: T15, human KOR (Gz) (Homo sapiens, UniProt P41145, Q115N)
T15 construct: expressed in transfected cells; host or cells: HEK293T

[16] = molecular target: T16, human KOR (Gz) (Homo sapiens, UniProt P41145)
T16 construct: expressed in transfected cells; host or cells: HEK293T

[17] = molecular target: T17, human KOR (Gz) (Homo sapiens, UniProt P41145, D334A)
T17 construct: expressed in transfected cells; host or cells: HEK293T

[18] = molecular target: T18, human KOR (Gz) (Homo sapiens, UniProt P41145, R271A)
T18 construct: expressed in transfected cells; host or cells: HEK293T

[19] = molecular target: T19, human KOR (Gz) (Homo sapiens, UniProt P41145, K200A)
T19 construct: expressed in transfected cells; host or cells: HEK293T

[20] = molecular target: T20, human KOR (Gz) (Homo sapiens, UniProt P41145, D105A)
T20 construct: expressed in transfected cells; host or cells: HEK293T

[21] = molecular target: T21, human KOR (Gz) (Homo sapiens, UniProt P41145, D266A)
T21 construct: expressed in transfected cells; host or cells: HEK293T

[22] = molecular target: T22, human KOR (Gz) (Homo sapiens, UniProt P41145, R170A)
T22 construct: expressed in transfected cells; host or cells: HEK293T

[23] = molecular target: T23, human KOR (Gz) (Homo sapiens, UniProt P41145, T94V)
T23 construct: expressed in transfected cells; host or cells: HEK293T

[24] = molecular target: T24, human KOR (Gz) (Homo sapiens, UniProt P41145, N326A)
T24 construct: expressed in transfected cells; host or cells: HEK293T

[25] = molecular target: T25, human KOR (Gz) (Homo sapiens, UniProt P41145, F114L)
T25 construct: expressed in transfected cells; host or cells: HEK293T

[26] = molecular target: T26, human KOR (Gz) (Homo sapiens, UniProt P41145, K227A)
T26 construct: expressed in transfected cells; host or cells: HEK293T

[27] = molecular target: T27, human KOR (Gz) (Homo sapiens, UniProt P41145, G319L)
T27 construct: expressed in transfected cells; host or cells: HEK293T

[28] = molecular target: T28, human KOR (Gz) (Homo sapiens, UniProt P41145, D155A); conditions: HEK-293T
T28 construct: expressed in transfected cells; host or cells: HEK293T

[29] = molecular target: T29, human KOR (Gz) (Homo sapiens, UniProt P41145, F283A)
T29 construct: expressed in transfected cells; host or cells: HEK293T

[30] = molecular target: T30, human KOR (Gz) (Homo sapiens, UniProt P41145, N322A)
T30 construct: expressed in transfected cells; host or cells: HEK293T

[31] = molecular target: T31, human KOR (Gz) (Homo sapiens, UniProt P41145, E297A)
T31 construct: expressed in transfected cells; host or cells: HEK293T

[32] = molecular target: T32, human KOR (Gz) (Homo sapiens, UniProt P41145, Y139L)
T32 construct: expressed in transfected cells; host or cells: HEK293T

[33] = molecular target: T33, human KOR (Gz) (Homo sapiens, UniProt P41145, N141A)
T33 construct: expressed in transfected cells; host or cells: HEK293T

[34] = HEK-293T, read-out: Gz (Figure 5A concentration-response, replicate values)

T8 sequence (P41145 whole entry D155A): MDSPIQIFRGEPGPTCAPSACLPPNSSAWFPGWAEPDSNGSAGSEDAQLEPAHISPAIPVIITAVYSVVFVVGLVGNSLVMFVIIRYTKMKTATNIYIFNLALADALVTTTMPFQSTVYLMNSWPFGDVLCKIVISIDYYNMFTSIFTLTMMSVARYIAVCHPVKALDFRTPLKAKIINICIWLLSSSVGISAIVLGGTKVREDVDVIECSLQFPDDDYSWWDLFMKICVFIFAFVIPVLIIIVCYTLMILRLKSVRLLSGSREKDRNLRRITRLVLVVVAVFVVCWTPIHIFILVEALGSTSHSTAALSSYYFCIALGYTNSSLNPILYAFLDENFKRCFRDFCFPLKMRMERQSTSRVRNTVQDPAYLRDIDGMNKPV
T16 sequence (P41145 whole entry): as the sequence (P41145 whole entry D155A) above, with A155D counted along it
T22 sequence (P41145 whole entry R170A): as the sequence (P41145 whole entry D155A) above, with A155D, R170A counted along it
T1 sequence (P41145 whole entry R170A): as the sequence (P41145 whole entry D155A) above, with A155D, R170A counted along it
T19 sequence (P41145 whole entry K200A): as the sequence (P41145 whole entry D155A) above, with A155D, K200A counted along it
T4 sequence (P41145 whole entry R257A): as the sequence (P41145 whole entry D155A) above, with A155D, R257A counted along it
T11 sequence (P41145 whole entry Q115N): as the sequence (P41145 whole entry D155A) above, with Q115N, A155D counted along it
T15 sequence (P41145 whole entry Q115N): as the sequence (P41145 whole entry D155A) above, with Q115N, A155D counted along it
T17 sequence (P41145 whole entry D334A): as the sequence (P41145 whole entry D155A) above, with A155D, D334A counted along it
T18 sequence (P41145 whole entry R271A): as the sequence (P41145 whole entry D155A) above, with A155D, R271A counted along it
T7 sequence (P41145 whole entry K227A): as the sequence (P41145 whole entry D155A) above, with A155D, K227A counted along it
T32 sequence (P41145 whole entry Y139L): as the sequence (P41145 whole entry D155A) above, with Y139L, A155D counted along it
T25 sequence (P41145 whole entry F114L): as the sequence (P41145 whole entry D155A) above, with F114L, A155D counted along it
T10 sequence (P41145 whole entry F114L): as the sequence (P41145 whole entry D155A) above, with F114L, A155D counted along it
T33 sequence (P41145 whole entry N141A): as the sequence (P41145 whole entry D155A) above, with N141A, A155D counted along it
T2 sequence (P41145 whole entry N141A): as the sequence (P41145 whole entry D155A) above, with N141A, A155D counted along it
T9 sequence (P41145 whole entry F283A): as the sequence (P41145 whole entry D155A) above, with A155D, F283A counted along it
T29 sequence (P41145 whole entry F283A): as the sequence (P41145 whole entry D155A) above, with A155D, F283A counted along it
T13 sequence (P41145 whole entry Y320L): as the sequence (P41145 whole entry D155A) above, with A155D, Y320L counted along it
T31 sequence (P41145 whole entry E297A): as the sequence (P41145 whole entry D155A) above, with A155D, E297A counted along it
T30 sequence (P41145 whole entry N322A): as the sequence (P41145 whole entry D155A) above, with A155D, N322A counted along it
T20 sequence (P41145 whole entry D105A): as the sequence (P41145 whole entry D155A) above, with D105A, A155D counted along it
T14 sequence (P41145 whole entry R274A): as the sequence (P41145 whole entry D155A) above, with A155D, R274A counted along it
T6 sequence (P41145 whole entry N326A): as the sequence (P41145 whole entry D155A) above, with A155D, N326A counted along it
T24 sequence (P41145 whole entry N326A): as the sequence (P41145 whole entry D155A) above, with A155D, N326A counted along it
T21 sequence (P41145 whole entry D266A): as the sequence (P41145 whole entry D155A) above, with A155D, D266A counted along it
T28 sequence (P41145 whole entry D155A): as the sequence (P41145 whole entry D155A) above
T26 sequence (P41145 whole entry K227A): as the sequence (P41145 whole entry D155A) above, with A155D, K227A counted along it
T3 sequence (P41145 whole entry Y139L): as the sequence (P41145 whole entry D155A) above, with Y139L, A155D counted along it
T12 sequence (P41145 whole entry L253A): as the sequence (P41145 whole entry D155A) above, with A155D, L253A counted along it
T23 sequence (P41145 whole entry T94V): as the sequence (P41145 whole entry D155A) above, with T94V, A155D counted along it
T27 sequence (P41145 whole entry G319L): as the sequence (P41145 whole entry D155A) above, with A155D, G319L counted along it
T5 sequence (P41145 whole entry D105A): as the sequence (P41145 whole entry D155A) above, with D105A, A155D counted along it

**Q.** For CN(C(=O)/C=C/c1ccoc1)[C@@H]1CC[C@@]2(O)[C@H]3Cc4ccc(O)c5c4[C@@]2(CCN3CC2CC2)[C@H]1O5 [Nalfurafine, nalfurafine], which “FC vs wild type” value [1] is on record?
**A.** The value was 6 and ~10.

**Q.** And the Emax ([1]; HEK-293T)?
**A.** The Emax was 86.9%.

**Q.** What about the “FC vs wild type” value [2] of the same compound?
**A.** The value was 9.

**Q.** And the Emax ([2]; HEK-293T)?
**A.** Its Emax is 101%.

**Q.** And the “FC vs wild type” value [3]?
**A.** The value was 3.

**Q.** And the “FC vs wild type” value [4]?
**A.** The value was 14 and 10.

**Q.** What about the “FC vs wild type” value [5] of the same compound?
**A.** Its value is 110.

**Q.** What about the “FC vs wild type” value [6] of the same compound?
**A.** Its value is 4.

**Q.** What about the Emax ([6]; HEK-293T) of the same compound?
**A.** Its Emax is 103%.

**Q.** What about the “FC vs wild type” value [7] of the same compound?
**A.** Its value is 1.

**Q.** What about the Emax ([7]; HEK-293T) of the same compound?
**A.** Its Emax is 107%.

**Q.** What about the “FC vs wild type” value [8] of the same compound?
**A.** Its value is 9 and < 10.

**Q.** What about the Emax ([8]; HEK-293T) of the same compound?
**A.** The Emax was 95.7%.

**Q.** And the “FC vs wild type” value [9]?
**A.** The value was 13.

**Q.** What about the Emax ([9]; HEK-293T) of the same compound?
**A.** The Emax was 89.5%.

**Q.** And the “FC vs wild type” value [10]?
**A.** The value was 40.

**Q.** And the Emax ([10]; HEK-293T)?
**A.** Its Emax is 67.4%.

**Q.** What about the “FC vs wild type” value [11] of the same compound?
**A.** Its value is 24.

**Q.** What about the Emax ([11]; HEK-293T) of the same compound?
**A.** The Emax was 65.8%.

**Q.** What about the Emax [12] of the same compound?
**A.** The Emax was 112%.

**Q.** And the “FC vs wild type” value [13]?
**A.** The value was 407.

**Q.** And the Emax ([13]; HEK-293T)?
**A.** The Emax was 93.7%.

**Q.** What about the “FC vs wild type” value [14] of the same compound?
**A.** Its value is 977.

**Q.** And the Emax ([14]; HEK-293T)?
**A.** The Emax was 99.1%.

**Q.** What about the “FC vs wild type” value [15] of the same compound?
**A.** The value was 39.

**Q.** What about the Emax ([15]; HEK-293T) of the same compound?
**A.** The Emax was 78.7%.

**Q.** What about the Emax% [16] of the same compound?
**A.** Its Emax% is 96.48%.

**Q.** What about the “FC vs wild type” value [16] of the same compound?
**A.** The value was 1.

**Q.** What about the Emax ([16]; HEK-293T) of the same compound?
**A.** The Emax was 96.7%.

**Q.** And the activation at 10 pM [16, 34]?
**A.** The activation at 10 pM was 45.5%.

**Q.** What about the activation at 0.1 µM [16, 34] of the same compound?
**A.** The activation at 0.1 µM was 99.7%.

**Q.** What about the activation at 1 µM [16, 34] of the same compound?
**A.** Its activation at 1 µM is 111%.

**Q.** What about the activation at 10 µM [16, 34] of the same compound?
**A.** The activation at 10 µM was 97.8%.

**Q.** And the “FC vs wild type” value [17]?
**A.** Its value is 112.

**Q.** And the Emax ([17]; HEK-293T)?
**A.** Its Emax is 99.2%.

**Q.** What about the “FC vs wild type” value [18] of the same compound?
**A.** Its value is 398.

**Q.** What about the Emax ([18]; HEK-293T) of the same compound?
**A.** Its Emax is 110%.

**Q.** What about the “FC vs wild type” value [19] of the same compound?
**A.** The value was 9.

**Q.** What about the Emax ([19]; HEK-293T) of the same compound?
**A.** The Emax was 108%.

**Q.** What about the “FC vs wild type” value [20] of the same compound?
**A.** Its value is 479.

**Q.** And the Emax ([20]; HEK-293T)?
**A.** Its Emax is 103%.

**Q.** And the “FC vs wild type” value [21]?
**A.** Its value is 1259.

**Q.** What about the Emax ([21]; HEK-293T) of the same compound?
**A.** The Emax was 112%.

**Q.** And the “FC vs wild type” value [22]?
**A.** Its value is 13 and ~10.

**Q.** And the Emax ([22]; HEK-293T)?
**A.** The Emax was 96%.

**Q.** What about the “FC vs wild type” value [23] of the same compound?
**A.** Its value is 6.

**Q.** And the “FC vs wild type” value [24]?
**A.** The value was 69.

**Q.** And the Emax ([24]; HEK-293T)?
**A.** Its Emax is 96.9%.

**Q.** What about the “FC vs wild type” value [25] of the same compound?
**A.** The value was 54.

**Q.** And the Emax ([25]; HEK-293T)?
**A.** The Emax was 85.6%.

**Q.** And the “FC vs wild type” value [26]?
**A.** Its value is 3.

**Q.** And the “FC vs wild type” value [27]?
**A.** Its value is 162.

**Q.** And the Emax [28]?
**A.** Its Emax is 92.7%.

**Q.** What about the “FC vs wild type” value [29] of the same compound?
**A.** The value was 44.

**Q.** What about the Emax ([29]; HEK-293T) of the same compound?
**A.** Its Emax is 106%.

**Q.** What about the “FC vs wild type” value [30] of the same compound?
**A.** The value was 1259.

**Q.** What about the Emax ([30]; HEK-293T) of the same compound?
**A.** The Emax was 81.8%.

**Q.** What about the “FC vs wild type” value [31] of the same compound?
**A.** The value was 1.

**Q.** What about the Emax ([31]; HEK-293T) of the same compound?
**A.** Its Emax is 103%.

**Q.** What about the “FC vs wild type” value [32] of the same compound?
**A.** Its value is 4.

**Q.** What about the Emax ([32]; HEK-293T) of the same compound?
**A.** The Emax was 103%.

**Q.** And the “FC vs wild type” value [33]?
**A.** The value was 93.

**Q.** What about the Emax ([33]; HEK-293T) of the same compound?
**A.** The Emax was 98.3%.
